Literature values in patent US9333184B2, “Composition and method for affecting male and female hormone levels” (NOKOMIS RESEARCH, INC., priority 2011, dated 2016).

Details: for ingested amount metabolically degraded: intestine to blood stream

Row | ingested amount metabolically available | ingested amount metabolically degraded [%] | Compound
1 | about 70% | 30 | NCCCCNCCCN [spermidine]
2 | about 70% | 30 | NCCCNCCCCNCCCN [spermine]
